Source: PMC4624771, “Oriented Cell Division in the C. elegans Embryo Is Coordinated by G-Protein Signaling Dependent on the Adhesion GPCR LAT-1” (PLoS Genetics, 2015)

What was measured:
C. elegans embryos = test: Contact length ratio of ABala-MS to ABalp-MS in embryos; assay type: in vivo; details: n = 11
Description: (§1) Fig 2 Division plane defects in lat-1 mutant embryos are rescued by elevation of intracellular cAMP via a Gs protein/adenylyl cyclase pathway. […] In wild-type embryos treated with the RNAi control vector L4440 ABal divides in an anterior-posterior direction (A) whereas in treated lat-1 mutants the division plane is almost perpendicular to MS (B). gsa-1 RNAi by feeding over two generations leads to a turning of the F2 ABal division plane in a direction similar to that in lat-1 mutants (C). F2 lat-1; gsa-1(RNAi) embryos show a similar ABal division plane to lat-1 mutants (D). (E) Cell division plane angles of ABal relative to MS after knockdown of gsa-1. […] The vector L4440 served as negative control. Data are shown as means ± SD. * p < 0.05; *** p < 0.001; n ≥ 11. (F) cAMP levels are reduced in lat-1 embryos compared to a control wild-type population. cAMP levels were measured after lysis (15 μg protein) by cAMP accumulation assay. Assays were performed in three independent experiments, data are given as means ± SD. ** p < 0.01. […] Mothers and subsequently offspring of wild-type and lat-1 individuals were incubated and individuals reaching adulthood were scored (n = 410). […] Data were calculated from pixel analyses utilizing DIC images and are shown as means ± SD, ** p < 0.01. […]

lat-1 mutants = test: Fertility rescue assay (brood size); assay type: in vivo, C. elegans; details: 80 μM forskolin, independently of time and duration of drug application
Method: Supplementary file pgen.1005624.s004.tif: S3 Fig A cAMP-mediated signal is involved in the role of LAT-1 in cleavage plane orientation but not in fertility. (A) Fertility defects of lat-1 mutants are not rescued by treatment of hermaphrodites from embryonic stages to adulthood with 80 μM forskolin. Brood size was scored compared to untreated (mock), DMSO-treated (0.8%) and wild-type control. Data are given as means ± SD, n.s. not significant. […] (TIF) Click here for additional data file.
Ten L4 hermaphrodites were allowed to lay eggs on separate NGM plates containing 80 µM forskolin or respective solvent and seeded with OP50. Plates were incubated at 22 °C. Every 24 hours hermaphrodites were transferred onto fresh plates until egg-laying ceased and embryos were scored. Experiments were conducted at least in triplicate. Data were examined with an unpaired two-tailed t test for each genotype and condition, means are presented with SD.

[1] = system: cAMP levels in C. elegans embryos and adults; test: In vivo cAMP measurement in C. elegans embryos and adults; details: cAMP accumulation assay after lysis
Description: as §1

lat-1(ok1465) nematodes = test: Lethality rescue assay in lat-1 mutant nematodes; assay type: in vivo
Description: Fig 2 Division plane defects in lat-1 mutant embryos are rescued by elevation of intracellular cAMP via a Gs protein/adenylyl cyclase pathway. […] In wild-type embryos treated with the RNAi control vector L4440 ABal divides in an anterior-posterior direction (A) whereas in treated lat-1 mutants the division plane is almost perpendicular to MS (B). gsa-1 RNAi by feeding over two generations leads to a turning of the F2 ABal division plane in a direction similar to that in lat-1 mutants (C). F2 lat-1; gsa-1(RNAi) embryos show a similar ABal division plane to lat-1 mutants (D). (E) Cell division plane angles of ABal relative to MS after knockdown of gsa-1. […] The vector L4440 served as negative control. Data are shown as means ± SD. * p < 0.05; *** p < 0.001; n ≥ 11. (F) cAMP levels are reduced in lat-1 embryos compared to a control wild-type population. cAMP levels were measured after lysis (15 μg protein) by cAMP accumulation assay. Assays were performed in three independent experiments, data are given as means ± SD. ** p < 0.01. (G) Rescue of developmental lethality in lat-1 nematodes treated with compounds promoting cAMP accumulation: forskolin (80 μM), IBMX (10 mM) and 8-Br-cAMP (0.25 mM). Mothers and subsequently offspring of wild-type and lat-1 individuals were incubated and individuals reaching adulthood were scored (n = 410). As controls, nematodes were incubated in solvent without drug (mock). Data are shown as means ± SD. * p < 0.05; ** p < 0.01; *** p < 0.001. (H) Forskolin increases cAMP levels in C. elegans embryos and adults. lat-1 mutants and subsequently embryos were incubated with 80 μM forskolin. […] As controls, nematodes were treated with 0.8% DMSO lacking forskolin (mock). Basal cAMP levels of mock control are: 0.70 ± 0.14 nM (wild-type embryos); 0.37 ± 0.19 nM (lat-1 embryos); 1.9 ± 0.7 nM (wild-type adults); 2.3 ± 0.8 nM (lat-1 adults). Assays were performed in three independent experiments, data are given as means ± SD. * p < 0.05; ** p < 0.01; *** p < 0.001. (I-L) Relative positions of ABala, ABalp, and MS in an AB^4 embryo. Schematic representation (top) and DIC microscopy (bottom), scale bars = 10 μm. In wild-type embryos (I) and embryos incubated in 80 μM forskolin for 120 minutes (K) ABal divides in an anterior-posterior direction with only ABalp forming an interface with MS. In lat-1 mutants the division plane is skewed resulting in ABala and ABalp contacting MS (J). lat-1 embryos treated with 80 μM forskolin for 120 minutes display wild-type division and cell interfaces (L). (M) Arrangement of blastomeres in the 12-cell stage embryo. […] The right-hand side is two views of the mean positions of the blastomeres. The spheres are enlarged to convey an impression of the contacts. Forskolin turns the ABal spindle in the mutant in a more anterior direction. (N) Cell division plane angles of ABal relative to MS of untreated wild-type/lat-1 controls and wild-type/lat-1 embryos after incubation of mothers and subsequently embryos for 48 hours in 80 μM forskolin. Upon forskolin treatment, mutant embryos display a wild-type division angle. As controls, nematodes were treated with 0.8% DMSO lacking forskolin (mock). Data are shown as average angles ± SD, *** p < 0.001; n ≥ 12. (O) Forskolin reduces the contact length of ABala to MS. Ratio of relative contact lengths of ABala to MS and ABalp to MS cells lat-1 embryos untreated (control, n = 10) and after incubation of mothers and subsequently embryos for 48 hours in 80 μM forskolin (n = 11). […] Data were calculated from pixel analyses utilizing DIC images and are shown as means ± SD, ** p < 0.01.
All compounds were obtained from Sigma Aldrich. Forskolin was dissolved in DMSO to 10 mM, 3-isobutyl-1-methylxanthine (IBMX) in Dent´s buffer to 10 mM, 8-bromoadenosine 3′,5′-cyclic monophosphate (8-Br-cAMP) in 1 N ammonium hydroxide to 250 mM and 2',5'-dideoxyadenosine (ddA) was diluted in DMSO to 100 mM prior to final dilution in Dent´s buffer. […]

[2] = target: rat latrophilin LPHN1 (ADGRL1) (rat) (UniProt O88917)
UniProt O88917, sequence (O88917 25-1515): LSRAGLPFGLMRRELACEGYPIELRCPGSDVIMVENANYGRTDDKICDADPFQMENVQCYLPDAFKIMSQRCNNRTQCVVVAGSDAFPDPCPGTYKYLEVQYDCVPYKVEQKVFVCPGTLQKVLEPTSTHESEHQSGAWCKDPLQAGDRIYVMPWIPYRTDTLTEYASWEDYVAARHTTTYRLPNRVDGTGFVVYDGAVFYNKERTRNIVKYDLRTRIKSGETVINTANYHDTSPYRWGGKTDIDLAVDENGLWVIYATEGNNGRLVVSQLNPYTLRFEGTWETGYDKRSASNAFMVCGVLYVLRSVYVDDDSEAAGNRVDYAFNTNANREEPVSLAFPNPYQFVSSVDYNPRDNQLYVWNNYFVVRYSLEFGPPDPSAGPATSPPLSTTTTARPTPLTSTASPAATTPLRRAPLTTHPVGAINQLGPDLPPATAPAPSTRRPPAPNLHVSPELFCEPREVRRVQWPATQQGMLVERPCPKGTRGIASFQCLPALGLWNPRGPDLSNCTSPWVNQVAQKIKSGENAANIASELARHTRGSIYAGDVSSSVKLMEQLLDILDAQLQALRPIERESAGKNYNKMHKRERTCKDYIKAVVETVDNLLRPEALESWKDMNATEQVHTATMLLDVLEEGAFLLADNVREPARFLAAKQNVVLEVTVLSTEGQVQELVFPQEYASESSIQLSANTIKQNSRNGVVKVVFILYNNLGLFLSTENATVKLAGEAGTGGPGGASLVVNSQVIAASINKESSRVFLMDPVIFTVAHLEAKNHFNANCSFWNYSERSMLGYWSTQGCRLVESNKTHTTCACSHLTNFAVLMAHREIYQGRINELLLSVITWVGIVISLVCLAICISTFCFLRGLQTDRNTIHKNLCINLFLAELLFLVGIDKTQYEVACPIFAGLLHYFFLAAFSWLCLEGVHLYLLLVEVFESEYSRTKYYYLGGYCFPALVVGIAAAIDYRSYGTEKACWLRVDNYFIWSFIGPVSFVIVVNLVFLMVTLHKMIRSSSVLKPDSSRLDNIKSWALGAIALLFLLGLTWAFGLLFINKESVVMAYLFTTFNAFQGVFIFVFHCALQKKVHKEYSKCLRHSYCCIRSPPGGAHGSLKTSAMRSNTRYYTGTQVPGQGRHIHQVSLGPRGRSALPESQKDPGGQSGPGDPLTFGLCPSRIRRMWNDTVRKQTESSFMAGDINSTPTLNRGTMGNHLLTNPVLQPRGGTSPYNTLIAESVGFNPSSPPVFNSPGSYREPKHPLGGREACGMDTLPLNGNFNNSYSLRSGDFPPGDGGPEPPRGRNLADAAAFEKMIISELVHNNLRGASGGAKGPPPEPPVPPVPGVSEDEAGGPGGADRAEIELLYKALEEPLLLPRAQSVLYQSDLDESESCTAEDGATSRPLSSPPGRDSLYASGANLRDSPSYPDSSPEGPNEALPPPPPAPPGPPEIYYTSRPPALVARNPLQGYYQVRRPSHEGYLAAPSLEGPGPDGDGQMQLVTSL

wild-type embryos = test: Embryonic lethality after adenylyl cyclase inhibition, wild-type; assay type: in vivo, C. elegans; details: adult hermaphrodites and subsequently very early embryos, 1 mM ddA vs 1% DMSO mock; n > 520
Method: (§2) All compounds were obtained from Sigma Aldrich. Forskolin was dissolved in DMSO to 10 mM, 3-isobutyl-1-methylxanthine (IBMX) in Dent´s buffer to 10 mM, 8-bromoadenosine 3′,5′-cyclic monophosphate (8-Br-cAMP) in 1 N ammonium hydroxide to 250 mM and 2',5'-dideoxyadenosine (ddA) was diluted in DMSO to 100 mM prior to final dilution in Dent´s buffer. Peptides were synthesized (see Supporting Experimental Procedures) and dissolved in DMSO to 100 mM prior to final dilution in M9. Worms were incubated in 80 μM forskolin, 10 mM IBMX, 0.25 mM 8-Br-cAMP, 1 mM ddA or 0.1 mM peptide solution, respectively, containing E. coli OP50.
(§3) Supplementary file pgen.1005624.s005.tif: S4 Fig Inhibition of adenylyl cyclases in wild-type hermaphrodites partially mimics the lat-1 phenotype. […] Note that this effect might be not fully penetrant due potential difficulties in drug accessibility. As controls, nematodes were treated with 1% DMSO lacking ddA (mock). Individuals surviving embryogenesis were scored (n > 520). Data are given as means ± SD. n.s. not significant; *** p < 0.001. (TIF) Click here for additional data file.

lat-1 mutant embryos = test: Embryonic lethality after adenylyl cyclase inhibition, lat-1 mutants; assay type: in vivo, C. elegans; details: 1 mM ddA vs 1% DMSO mock; n > 520
Method: as §2, §3

[3] = target: T1, C. elegans latrophilin homolog LAT-1 (C. elegans) (UniProt G5EDW2)
T1 sequence: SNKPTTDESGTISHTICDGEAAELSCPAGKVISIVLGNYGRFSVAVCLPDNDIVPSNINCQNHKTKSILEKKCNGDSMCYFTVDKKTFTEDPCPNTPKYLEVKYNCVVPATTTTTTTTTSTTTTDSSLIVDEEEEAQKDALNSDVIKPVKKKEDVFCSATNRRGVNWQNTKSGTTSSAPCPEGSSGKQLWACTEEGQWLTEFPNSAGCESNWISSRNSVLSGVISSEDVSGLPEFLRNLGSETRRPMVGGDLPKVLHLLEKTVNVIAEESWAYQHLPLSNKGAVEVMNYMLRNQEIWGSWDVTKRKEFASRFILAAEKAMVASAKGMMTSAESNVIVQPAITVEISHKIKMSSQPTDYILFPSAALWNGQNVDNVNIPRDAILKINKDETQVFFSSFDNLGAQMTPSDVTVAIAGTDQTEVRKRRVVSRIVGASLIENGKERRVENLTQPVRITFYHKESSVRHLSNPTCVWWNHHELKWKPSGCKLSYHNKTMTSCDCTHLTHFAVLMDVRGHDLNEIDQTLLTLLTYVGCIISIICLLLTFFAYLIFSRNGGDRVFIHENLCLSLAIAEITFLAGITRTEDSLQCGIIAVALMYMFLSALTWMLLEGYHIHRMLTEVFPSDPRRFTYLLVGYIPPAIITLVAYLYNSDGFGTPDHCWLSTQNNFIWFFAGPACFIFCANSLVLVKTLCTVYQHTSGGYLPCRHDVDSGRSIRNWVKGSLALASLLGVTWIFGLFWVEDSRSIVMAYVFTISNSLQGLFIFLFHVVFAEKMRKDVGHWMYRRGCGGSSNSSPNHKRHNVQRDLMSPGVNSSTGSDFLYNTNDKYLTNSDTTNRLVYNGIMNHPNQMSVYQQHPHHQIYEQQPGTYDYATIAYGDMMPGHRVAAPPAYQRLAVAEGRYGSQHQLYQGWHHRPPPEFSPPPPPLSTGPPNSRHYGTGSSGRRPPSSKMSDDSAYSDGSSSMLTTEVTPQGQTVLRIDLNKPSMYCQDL

In the case of C=C[C@@]1(C)CC(=O)[C@]2(O)[C@@]3(C)[C@@H](O)CCC(C)(C)[C@@H]3[C@H](O)[C@H](OC(C)=O)[C@@]2(C)O1 [forskolin], the “contact of ABala to MS in wild-type embryos, in words” value (C. elegans embryos; forskolin-treated wild-type embryos, 80 μM) is reported as “does not contact MS”, the “contact of ABala to MS in lat-1 embryos, in words” value (C. elegans embryos; lat-1 embryos, mothers and subsequently embryos 48 hours in 80 μM forskolin, untreated ratio 0.72 ± 0.03) is reported as “strongly reduced” and the “rescue of reduced brood size of lat-1 mutants, in words” value (lat-1 mutants) is reported as “did not detect any rescue”. For the same molecule, the “cAMP levels in embryos, in words” value ([1]; lat-1 mutants and subsequently embryos incubated with 80 μM forskolin vs 0.8% DMSO mock) was “increase in cAMP levels”, the “cAMP in hermaphrodites, in words” value ([1]; wild-type and lat-1 hermaphrodites (L4 stage), 80 μM forskolin 48 hours vs 0.8% DMSO mock) was “elevated cAMP” and the “effect on embryonic lethality of lat-1 worms, in words” value (lat-1(ok1465) nematodes; L4 larvae and subsequently embryos incubated, forskolin 80 μM, IBMX 10 mM, 8-Br-cAMP 0.25 mM) was “amelioration of embryonic lethality”. The “time point of drug application needed for rescue of developmental lethality, in words” value (lat-1(ok1465) nematodes; lat-1 mutants, 80 μM forskolin) was “only when adding forskolin to the mother or the very early embryonic stages”, the “survival rate (individuals reaching adulthood)” value (lat-1(ok1465) nematodes; lat-1 worms, mothers (L4) and subsequently offspring incubated in 80 μM forskolin, untreated 33%) was 73% and the “effect of concentrations higher than 80 μM on C. elegans, in words” value (lat-1(ok1465) nematodes; various concentrations tested) was “higher concentrations were detrimental”. The “concentration with optimal effect” value (lat-1(ok1465) nematodes; various concentrations tested on C. elegans) was 80 µM.

Molecule “RP13, peptide of 13 amino acids C-terminal of the rat LPHN1 GPS cleavage site” has a cAMP accumulation (ALPHAScreen) in COS-7 cells transfected with rat LPHN1 and stimulated with 1 mM peptide, fold over basal [2] of 2.3 fold.

C[C@H]1O[C@@H](n2cnc3c(N)ncnc32)C[C@@H]1O [ddA, 2',5'-dideoxyadenosine] was tested, and the “embryonic lethality in wild-type, in words” value (wild-type embryos) was “specific embryonic lethality” and the “embryonic lethality in lat-1 mutant embryos, in words” value (lat-1 mutant embryos) was “not in lat-1 mutant embryos”.

Work on THFAVLMDVRGH [CP12, peptide of 12 amino acids C-terminal of the LAT-1 GPS cleavage site] yielded a cAMP accumulation (ALPHAScreen) in lat-1-transfected COS-7 cells stimulated with 1 mM peptide, fold over basal [3] of 1.6 fold.
